Marks after values point to notes of the source that are not given here.
What was measured:
[1] = tested on: Male cockroaches (Blattela germanica); assay: Y-tube olfactometer bioassay, test compound in mineral oil on filter paper; type: in vivo; settings: 0.5% w/v solution in mineral oil; mean of 3 replicates; 65% or more = significantly attractive (*), 35% or less = significantly repellent (**)
Text: The German cockroach (Blattela germanica) is one of the most difficult cockroach species to control in homes and was used to illustrate the invention. […] Since the cockroaches never contact the test sample, their response is strictly to the molecules in the air stream.
(§1) Olfactometer Bioassay: The Y-tube bioassay apparatus was similar to that described by Vander Meer et al. (J. Chem. Ecol., 14: 825-838 (1988)). Compressed air (breathing-air quality) was passed into the two choice arms at 0.2 l/min for a total flow of 0.4 l/min. Flow rates were adjusted and controlled by two flow meters (Omega Engineering, Inc.). All tubing carrying the air was either copper or Teflon. Prior to evaluating treatment samples, a positive standard was put through the bioassay procedure. […] Test samples (10.0 μl) and the solvent blank (mineral oil, 10.0 μl) were applied to filter paper strips (0.3×1.0 cm, Whatman No. 1) and then each was placed into one of the two choice arms. Male cockroaches (Blattela germanica) were prepared for their introduction into the olfactometer by placing them in a Teflon tube (3 cm×0.8 cm) that had one end blocked with a piece of copper mesh screen. The open end of tube was closed with a lightly attached piece of tape. The cockroaches were introduced individually by removing the tape and quickly inserting the Teflon tube into the entrance arm of the olfactometer. […] The initial choice of the cockroach was recorded. The cockroach was removed and the process was repeated 10 times with the same test and blank samples. The 10 choices usually required less than 5 minutes to complete. After each set of 10 cockroaches had made their choice, the olfactometer was rinsed with acetone, dried, and reassembled for the next test. Each sample was retested with the same cockroaches, but with the sample and control in reverse positions. The sum of the results from the two tests represented one replicate. This procedure minimized bias inherent in the apparatus. A null hypothesis of equal numbers of cockroaches in each arm was tested with chi-square analysis. […] Results in-between were neutral.
The diameter of the Y part of the olfactometer provided a close fit for the cockroach, thus keeping it in the center of the walkway.

[2] = tested on: Male cockroaches (Blattela germanica); assay: Y-tube olfactometer bioassay of controlled release pellets aged in a fume hood; type: in vivo; settings: for Percent Response: mean of 3 replicates; for activity in the olfactometer (in words): charcoal as the absorbent, after one hour in the fume hood
Text: as §1, with “procedure. The standard was initially an attractive food material (grape flavoring concentrate used at 0.33%) and later 0.5% (w/v) methyl tiglate, one of the compounds of the present invention, in white, light mineral oil (Aldrich Chemical Co.).” for “procedure.”
Controlled Release Formulations: Four esters found to be significant cockroach attractants were selected for evaluation in controlled release formulations-developed by BioGuard, Inc. Six controlled release formulations from BioGuard were evaluated in the olfactometer. The attractants were methyl tiglate, butyl hexanoate, propyl propanoate, and butyl heptanoate. The attractants were absorbed to either coconut shell charcoal pellets or potassium substituted crystalline zeolite pellets, and then coated with water soluble methylcellulose. The powdered methyl cellulose was dissolved in 80° C. water until saturation, cooled to approx 25° C., the pellets immersed into the solution for a 30 sec, and removed and rapidly air dried with 30° C. pre-dried air. The end products were pellets (charcoal=2 mm×4 mm dia.; molecular sieve=4 mm×1.5 mm dia.). […] A single pellet was used in place of the filter paper described above. The control side was left blank.

[3] = Release rate of attractants from sustained release delivery systems; type: physicochemical
Text: Several secondary release rate control systems were developed. The first was a sachet that can contain the above polymer releasing system. This sachet can be either polyvinylidine chloride (PvdC) barrier film (e.g., Saranex™) enclosed in a thermally sealed metalized polyethylene container to eliminate release of active compounds, or a metalized polyethylene sachet with a removable seal that covers a vapor diffusion controlling orifice which when removed begins the release process from the internal polymer/carrier, or metalized polyethylene sachet which contains a small vial with a vapor controlling orifice. In the case of the Saranex™ sachet, the actual porosity of the Saranex™ control release is based on type of PVdC and thickness of the film. In the case of the metalized polyethylene sachet and internal polymer/carrier, a specific orifice size controlled the rate of diffusion of the active from the device, as shown in FIG. 4. An additional means of containing and reducing the release of the liquid active compounds and providing a solid support for use in the above delivery system involved sorbing the active compounds into an inert absorbent such as Membrana GmbH's expanded microporous polyolefin Accurel® MP100 which are granular or pelletized polyethylenes that have 10-50 μm air pockets throughout and can contain up to 90% of their volume in active compounds . MP100 was easily loaded with 80% by wt active ingredient due to its porosity. […] Thus, placement into the metalized polyethylene sachet with its diffusion regulating orifice was required.
Active compounds (1 gm active in Accurel® MP100) were sealed within the metalized polyethylene sachet, and a 0.5 mm hole placed into the film, and sealed until use with a metalized tape. Release rates for propyl propanoate, methyl tiglate, and butyl hexanoate were calculated at 15.5, 11.4, and 4.8 mg/day, respectively. Longevity of this system was calculated to be 64, 87, and 208 days, respectively.
Release rates for the thermoset urethane (Flexane® 80P) and synthetic rubbers systems ranged from 0.055 to 0.2 mg/cm^2/day, depending on durometer/hardness that is a measure of polymer crosslinking. Best results were obtained at durometer/hardness levels above D30. Release rates for the Saranex system without the release control provided by the metalized polyethylene and diffusion control orifice were 187, 236, and 7 mg/day for propyl propanoate, methyl tiglate, and butyl hexanoate, respectively.

[4] = tested on: German roaches (B. germanica); assay: Two-harborage arena bioassay of sustained release polymer formulations; type: in vivo; settings: formulated with Santoprene; counted after 24 hours
Text: Evaluation of sustained release formulations: Three cockroach attractants (methyl tiglate, butyl heptanoate, and propyl proprionate) were formulated in one or more polymer formulations (Urethane, Pellethane, Santoprene, and/or Polyethylene) as indicated in Table 4.A sweater box (1.5×2.0×0.5 ft) provided the test arena. The sides of the arena were coated with a blend of mineral oil and Vaseline petroleum jelly. The tops of two 8 oz paper ice cream cups were tapped to the arena floor with masking tape and, prior to the addition of the test cockroaches, inverted cups without holes were fixed to the tapped lids. Twenty-five laboratory reared late stage nymphs or adult male German roaches (B. germanica), starved for 72 hrs, were added to the arena and allowed to calm down (ca. 1 hour). The starting inverted ice cream cups were carefully removed and each ice cream cup top was then supplied with a water tube (1.5 ml scintillation vial with water and stoppered with cotton), one lab chew food pellet, and either a test attractant polymer formulation or the corresponding polymer blank control. […] The cups were oriented so that the holes were facing each other. The number of roaches that sought harborage in the cups was counted after 24 hours by plugging the entrance holes with cotton, the roaches inside euthanized, and the numbers in each cup counted.

cockroach = assay: Bioassays for cockroach attraction of attractants sorbed into thermoplastic polymers; type: in vivo
Text: To alleviate the reactivity with the carrier polymers, we attempted to load active compounds into a series of thermoplastic polymers including urethanes and synthetic rubbers, based on the behavior of the active compounds as plasticizers. […] Propyl propanoate, methyl hexanoate, and methyl tiglate were loaded into a series of thermoplastic granulated feed materials, including 4-(1,1,3,3-tetramethylbutyl) with ethylene-5-ethylidenebicyclo[2.2.1]hept-2-ene-propene thermoplastic synthetic rubber (Santopren™ 203-40). Santoprene™ is a thermoplastic elastomer (TPE that is a mixture of in-situ cross linking of EPDM rubber and polypropylene compounds). Because of the longer life of Santopren™ in both extreme hot and cold environments, it is often preferred over the use of rubber. Pellethane™ 2102-55D is a polyester polycaprolactone polyurethane. Methyl hexanoate and methyl tiglate were sorbed using heat and pressure (60° C., 40 psi, 30 min) into the Santoprene® and were effective in bioassays for cockroach attraction. […] Loading rates of active compounds into the Santoprene®, using slightly elevated temperature (60° C.) and 40 psi pressure, were 8-12% by wt for the two compounds.

[5] = Charcoal absorbent, methylcellulose coated pellet, aged 1 hour in fume hood
[6] = charcoal controlled release formulation, aged 24 hours in fume hood
[7] = charcoal controlled release formulation, aged 48 hours in fume hood

## CCCCOC(C)=O [Butyl Acetate]
[1]
  Percent Response: 45.0%

## CCCCOC(=O)CCC [Butyl Butanoate]
[1]
  Percent Response: 35.0** %

## CCCCCCC(=O)OCCCC [Butyl Heptanoate]
[1]
  Percent Response: 80.0* %
[2]; [5]
  Percent Response: 70.0%
[2]
  activity in the olfactometer (in words): significantly active
[2]; [6]
  Percent Response: 61.6%
[2]; [7]
  Percent Response: 58.3%

## CCCCCC(=O)OCCCC [Butyl Hexanoate]
[1]
  Percent Response: 75.0* %
[2]; [5]
  Percent Response: 82.0%
[2]
  activity in the olfactometer (in words): significantly active
[2]; [6]
  Percent Response: 70.0%
[2]; [7]
  Percent Response: 61.6%
[3]; 1 gm active in Accurel MP100 in metalized polyethylene sachet with 0.5 mm hole
  Longevity of the release system: 208 days
[3]; 1 gm active in Accurel MP100 in metalized polyethylene sachet with 0.5 mm hole, FIG. 3
  Release rate: 4.8 mg/day
[3]; Saranex system without metalized polyethylene and diffusion control orifice
  Release rate: 7 mg/day
[4]
  attraction to treatment harborage versus polymer blank control (in words): significant attraction and subsequent aggregation

## CCCCCCCCC(=O)OCCCC [Butyl Nonanoate]
[1]
  Percent Response: 40.0%

## CCCCCCCC(=O)OCCCC [Butyl Octanoate]
[1]
  Percent Response: 55.0%

## CCCCOC(=O)CCCC [Butyl Pentanoate]
[1]
  Percent Response: 50.0%

## CCCCOC(=O)CC [Butyl Propanoate]
[1]
  Percent Response: 15.0** %

## CCCC(=O)OCC [Ethyl Butyrate]
[1]
  Percent Response: 63.3%

## CCCCCCC(=O)OCC [Ethyl Heptanoate]
[1]
  Percent Response: 40.0%

## CCCCCC(=O)OCC [Ethyl Hexanoate]
[1]
  Percent Response: 75.0* %

## CCCCCCCC(=O)OCC [Ethyl Octanoate]
[1]
  Percent Response: 50.0%

## CCCCC(=O)OCC [Ethyl Pentanoate]
[1]
  Percent Response: 65.0* %

## CCOC(=O)CC [Ethyl Propanoate]
[1]
  Percent Response: 65.0* %

## CCCCCCOC(=O)CCC [Hexyl Butanoate]
[1]
  Percent Response: 35.0** %

## CCCC(=O)OC [Methyl Butanoate]
[1]
  Percent Response: 55.0%

## CCCCCCCCCC(=O)OC [Methyl Decanoate]
[1]
  Percent Response: 55.0%

## CCCCCCCCCCCC(=O)OC [Methyl Dodecanoate]
[1]
  Percent Response: 45.0%

## CCCCCCC(=O)OC [Methyl Heptanoate]
[1]
  Percent Response: 50.0%

## CCCCCC(=O)OC [Methyl Hexanoate]
[1]
  Percent Response: 45.0%
cockroach; loaded into Dow Pellethane
  effect in bioassays for cockroach attraction (in words): worked less well
cockroach; sorbed into Santoprene (60° C., 40 psi, 30 min)
  effect in bioassays for cockroach attraction (in words): effective

## CCCCCCCCC(=O)OC [Methyl Nonanoate]
[1]
  Percent Response: 45.0%

## CCCCC(=O)OC [Methyl Pentanoate]
[1]
  Percent Response: 50.0%

## CCC(=O)OC [Methyl Propanoate]
[1]
  Percent Response: 60.0%

## CCCCCCCCCCC(=O)OC [Methyl Undecanoate]
[1]
  Percent Response: 45.0%

## CCCOC(=O)CCC [Propyl Butanoate]
[1]
  Percent Response: 35.0** %

## CCCOC(C)=O [Propyl acetate]
[1]
  Percent Response: 40.0%
